According to patent US5889013A, “Pyrimidine acyclonucleoside derivatives” (priority 1994, dated 1999):

What was measured:
[1] = test system: HIV-1 (HTLV-IIIB strain); assay: Inhibitory activity for HIV-induced cytopathogenicity (MT-4 cells, MTT method); type: cell-based; conditions: Human immunodeficiency virus 1, IIIB, MT4, 144 h, read-out: 50% inhibitory concentration of HIV infection
Description: (§1) In RPMI 1640 culture medium supplemented with 10% heat-inactivated fetal bovine serum, 2 mM of L-glutamine, 100 U/mL of penicillin G and 100 μg/mL of streptomycin, MT-4 cells (HTLV-1 transformed T4-cell line) at a concentration of 1×10^4 /well in a flat-bottom, microtiter plate were infected with 500 TCID50 of HIV-1 (HTLV-IIIB strain). Immediately after virus infection, sample serially diluted with culture medium from stock solution prepared in dimethyl sulfoxide was added to each well in quadriplicate. After 6 days incubation at 37° C., the viability of mock and HIV-infected cells was determined by the 3-(4,5-dimethylthiazol-2-yl)-2,5-diphenyltetrazolium bromide (MTT) method. And also, the cytotoxicity of sample to MT-4 cells not infected with HIV was assessed in parallel with its antiviral activity under the same way as above.

[2] = Cytotoxicity to MT-4 cells not infected with HIV (MTT method); type: cell-based; conditions: human; MT-4 cells not infected with HIV, 6 days, 37° C., MTT; read-out: 50% cytotoxic concentration to MT-4 cells
Description: as §1

With Cc1cccc([Se]c2c(C(C)C)c(=O)[nH]c(=O)n2COCCO)c1 [Compound 11, 1-[(2-hydroxyethoxy)methyl]-5-isopropyl-6-[(3-methylphenyl)-selenenyl]uracil] the IC50 [1] was 15 nM and the CC50 at 144 h [2] was 30.5 µM.

In the case of CC(C)c1c([Se]c2ccccc2)n(COCc2ccccc2)c(=O)[nH]c1=O [Compound 52, 1-[(benzyloxy)methyl]-5-isopropyl-6-(phenylselenenyl)uracil], the IC50 [1] is reported as 0.1 nM and the CC50 at 144 h [2] is reported as 29.4 µM.

In the case of CCc1c([Se]c2ccccc2)n(CCCc2ccccc2)c(=O)[nH]c1=O [Compound 73, 5-ethyl-1-(3-phenylpropyl)-6-(phenylselenenyl)uracil], the IC50 [1] is reported as 3 nM and the CC50 at 144 h [2] is reported as 26.1 µM.

CCc1c([Se]c2cccc(C)c2)n(COCc2ccccc2)c(=O)[nH]c1=O [Compound 37, 1-[(benzyloxy)methyl]-5-ethyl-6-[(3-methylphenyl)selenenyl]uracil] gave an IC50 [1] of 0.21 nM and a CC50 at 144 h [2] of 28.8 µM.

CCOCn1c([Se]c2cc(C)cc(C)c2)c(C(C)C)c(=O)[nH]c1=S [Compound 24, 6-[(3,5-dimethylphenyl)selenenyl]-1-(ethoxymethyl)-5-isopropyl-2-thiouracil] showed an IC50 [1] of 1.6 nM and a CC50 at 144 h [2] of 31.7 µM.

With CCCCn1c([Se]c2cc(C)cc(C)c2)c(CC)c(=O)[nH]c1=O [Compound 65, 1-butyl-6-[(3,5-dimethylphenyl)selenenyl]-5-ethyluracil] the IC50 [1] was 3 nM and the CC50 at 144 h [2] was 27.9 µM.

CCOCn1c([Se]c2ccccc2)c(C(C)C)c(=O)[nH]c1=S [Compound 22, 1-(ethoxymethyl)-5-isopropyl-6-(phenylselenenyl)-2-thiouracil] gave an IC50 [1] of 1.5 nM and a CC50 at 144 h [2] of 30.1 µM.

For CCc1c([Se]c2cc(C)cc(C)c2)n(COCc2ccccc2)c(=O)[nH]c1=O [Compound 38, 1-[(benzyloxy)methyl]-6-[(3,5-dimethylphenyl)selenenyl]-5-ethyluracil], the IC50 [1] was 0.08 nM and the CC50 at 144 h [2] was 31.7 µM.

In the case of CCCCn1c([Se]c2ccccc2)c(CC)c(=O)[nH]c1=O [Compound 64, 1-butyl-5-ethyl-6-(phenylselenenyl)uracil], the IC50 [1] is reported as 40 nM and the CC50 at 144 h [2] is reported as 27.3 µM.

Work on CCc1c([Se]c2cc(C)cc(C)c2)n(COCCO)c(=S)[nH]c1=O [Compound 3, 6-[(3,5-dimethylphenyl)selenenyl]-5-ethyl-1-[(2-hydroxyethoxy)methyl]-2-thiouracil] yielded an IC50 [1] of 30 nM and a CC50 at 144 h [2] of 32.5 µM.

For CCc1c([Se]c2cc(C)cc(C)c2)n(COCc2ccccc2)c(=S)[nH]c1=O [Compound 21, 1-[(benzyloxy)methyl]-6-[(3,5-dimethylphenyl)selenenyl]-5-ethyl-2-thiouracil], the IC50 [1] was 1.7 nM and the CC50 at 144 h [2] was 24.1 µM.

For Cc1cccc([Se]c2c(C(C)C)c(=O)[nH]c(=S)n2COCc2ccccc2)c1 [Compound 27, 1-[(benzyloxy)methyl]-5-isopropyl-6-[(3-methylphenyl)selenenyl]-2-thiouracil], the IC50 [1] was 1.1 nM and the CC50 at 144 h [2] was 30 µM.

CCc1c([Se]c2cccc(C)c2)n(COCCO)c(=S)[nH]c1=O [Compound 2, 5-ethyl-1-[(2-hydroxyethoxy)methyl]-6-[(3-methylphenyl)selenenyl]-2-thiouracil] showed an IC50 [1] of 40 nM and a CC50 at 144 h [2] of 32 µM.

With CCOCn1c([Se]c2cccc(C)c2)c(C(C)C)c(=O)[nH]c1=O [Compound 49, 1-(ethoxymethyl)-5-isopropyl-6-[(3-methylphenyl)selenenyl]uracil] the IC50 [1] was 0.7 nM and the CC50 at 144 h [2] was 29.2 µM.

For CCOCn1c([Se]c2ccccc2)c(CC)c(=O)[nH]c1=S [Compound 15, 1-(ethoxymethyl)-5-ethyl-6-(phenylselenenyl)-2-thiouracil], the IC50 [1] was 24 nM and the CC50 at 144 h [2] was 26.1 µM.

For Cc1cc(C)cc([Se]c2c(C(C)C)c(=O)[nH]c(=O)n2COCCO)c1 [Compound 12, 6-[(3,5-dimethylphenyl)selenenyl]-1-[(2-hydroxyethoxy)methyl]-5-isopropyluracil], the IC50 [1] was 1.9 nM and the CC50 at 144 h [2] was 29.1 µM.

For Cc1cccc([Se]c2c(C(C)C)c(=O)[nH]c(=S)n2COCCO)c1 [Compound 5, 1-[(2-hydroxyethoxy)methyl]-5-isopropyl-6-[(3-methylphenyl)-selenenyl]-2-thiouracil], the IC50 [1] was 38 nM and the CC50 at 144 h [2] was 31.7 µM.

Compound CCCCn1c([Se]c2cc(C)cc(C)c2)c(C(C)C)c(=O)[nH]c1=O [Compound 83, 1-butyl-6-[(3,5-dimethylphenyl)selenenyl]-5-isopropyluracil] has an IC50 [1] of 2 nM and a CC50 at 144 h [2] of 28.2 µM.

CCOCn1c([Se]c2cccc(C)c2)c(CC)c(=O)[nH]c1=S [Compound 16, 1-(ethoxymethyl)-5-ethyl-6-[(3-methylphenyl)selenenyl]-2-thiouracil] gave an IC50 [1] of 8 nM and a CC50 at 144 h [2] of 24.8 µM.

Work on CCOCn1c([Se]c2cc(F)cc(F)c2)c(CC)c(=O)[nH]c1=O [Compound 32, 6-[(3,5-difluorophenyl)selenenyl]-1-(ethoxymethyl)-5-ethyluracil] yielded an IC50 [1] of 6 nM and a CC50 at 144 h [2] of 30.6 µM.

For Cc1cc(C)cc([Se]c2c(C(C)C)c(=O)[nH]c(=S)n2COCCO)c1 [Compound 6, 6-[(3,5-dimethylphenyl)selenenyl]-1-[(2-hydroxyethoxy)methyl]-5-isopropyl-2-thiouracil], the IC50 [1] was 8 nM and the CC50 at 144 h [2] was 32.4 µM.

With CC(C)c1c([Se]c2ccccc2)n(CCCc2ccccc2)c(=O)[nH]c1=O [Compound 84, 5-isopropyl-1-(3-phenylpropyl)-6-(phenylselenenyl)uracil] the IC50 [1] was 8 nM and the CC50 at 144 h [2] was 28 µM.

In the case of Cc1cc(C)cc([Se]c2c(C(C)C)c(=O)[nH]c(=S)n2COCc2ccccc2)c1 [Compound 28, 1-[(benzyloxy)methyl]-6-[(3,5-dimethylphenyl)selenenyl]-5-isopropyl-2-thiouracil], the IC50 [1] is reported as 5.4 nM and the CC50 at 144 h [2] is reported as 30.9 µM.

CCc1c([Se]c2cccc(C)c2)n(COCc2ccccc2)c(=S)[nH]c1=O [Compound 20, 1-[(benzyloxy)methyl]-5-ethyl-6-[(3-methylphenyl)selenenyl]-2-thiouracil] showed an IC50 [1] of 0.8 nM and a CC50 at 144 h [2] of 43.4 µM.

Work on CC(C)c1c([Se]c2ccccc2)n(COCc2ccccc2)c(=S)[nH]c1=O [Compound 26, 1-[(benzyloxy)methyl]-5-isopropyl-6-(phenylselenenyl)-2-thiouracil] yielded an IC50 [1] of 0.7 nM and a CC50 at 144 h [2] of 30.2 µM.

CCc1c([Se]c2ccccc2)n(COCc2ccccc2)c(=S)[nH]c1=O [Compound 19, 1-[(benzyloxy)methyl)-5-ethyl-6-(phenylselenenyl)-2-thiouracil] showed an IC50 [1] of 4 nM and a CC50 at 144 h [2] of 25.1 µM.

In the case of CCOCn1c([Se]c2cc(C)cc(C)c2)c(CC)c(=O)[nH]c1=O [Compound 30, 6-[(3,5-dimethylphenyl)selenenyl]-1-(ethoxymethyl)-5-etlyluracil], the IC50 [1] is reported as 0.6 nM and the CC50 at 144 h [2] is reported as 28.9 µM.

With CCc1c([Se]c2cc(C)cc(C)c2)n(COCCO)c(=O)[nH]c1=O [Compound 9, 6-[(3,5-dimethylphenyl)selenenyl]-5-ethyl-1-[(2-hydroxyethoxy)-methyl]uracil] the IC50 [1] was 15 nM and the CC50 at 144 h [2] was 34.5 µM.

CCOCn1c([Se]c2ccccc2)c(C(C)C)c(=O)[nH]c1=O [Compound 48, 1-(ethoxymethyl)-5-isopropyl-6-(phenylselenenyl)uracil] showed an IC50 [1] of 4.2 nM and a CC50 at 144 h [2] of 32.5 µM.
